This assay has as its target T1, recombinant human GST-Syk (Homo sapiens, UniProt P43405).
T1 construct: purchased Carna Biosciences 08-176
Nature of the assay: Homogeneous Time-Resolved Fluorescence (HTRF) assay for the recombinant human Syk enzyme. The class given is biochemical. As to conditions: ATP 25 μM, 10-dose titration. The protocol:
Syk inhibition may be determined using the following assay protocol:
Homogeneous Time-Resolved Fluorescence (HTRF) Assay for the Recombinant Human Syk Enzyme:
A recombinant GST-hSyk fusion protein was used to measure potency of compounds to inhibit human Syk activity. The recombinant human GST-Syk (Carna Biosciences #08-176) ([…]) was incubated with various concentrations of the inhibitor diluted in DMSO (0.1% final concentration) for 10 minutes at room temperature in 15 mM Tris-HCl (pH 7.5), 0.01% tween 20, 2 mM DTT in 384 well plate format. To initiate the reaction the biotinylated substrate peptide (250 nM final concentration) that contains the phosphorylation site for Syk was added with magnesium (5 mM final concentration) and ATP (25 μM final concentration). Final volume of the reaction was 10 μL. Phosphorylation of the peptide was allowed to proceed for 45 minutes at room temperature. To quench the reaction and detect the phosphorylated product, 2 nM of a Europium-anti-phosphotyrosine antibody (Perkin Elmer #AD0161) and 70 nM SA-APC (Perkin-Elmer #CR130-100) were added together in 15 mM Tris pH 7.5, 40 mM EDTA, 0.01% tween 20. Final volume of the quenching solution was 10 μL. The resulting HTRF signal was measured after 30 minutes on an EnVision (Perkin-Elmer) reader using a time-resolved fluorescence protocol. IC50 was determined following 10-dose titration (10 μM to 0.508 nM) and four parameter logistic curve fitting using the Merck Assay Data Analyzer. The rhSyk activity (IC50) is expressed as +++ (100 nM or less), ++ (between 100 and 1000 nM), + (between 1 and 10 μM).
Background: In TR-FRET formats the signal depends on donor and acceptor labels being close together.

Where two headings read alike, the source gives them in different places.

Turning to `Cc1cc(Nc2cc(C)c(F)cn2)nc(-n2cnc([C@]3(O)CC[C@@H](OC(=O)c4ccccc4)CC3)c2)c1` [Example 48, cis-4-(1-{6-[(5-fluoro-4-methylpyridin-2-yl)amino]-4-methylpyridin-2-yl}-1H-imidazol-4-yl)-4-hydroxycyclohexyl benzoate], for the setting “read-out: rhSYK Activity”, the IC50 was at most 100 nM.
`Cc1cc(Nc2cc(C)c(Cl)cn2)nc(-n2cnc([C@]3(O)CC[C@@H](OC(=O)c4ccccc4)CC3)c2)c1` [Example 49, cis-4-(1-{6-[(5-chloro-4-methylpyridin-2-yl)amino]-4-methylpyridin-2-yl}-1H-imidazol-4-yl)-4-hydroxycyclohexyl benzoate]: where the note is “read-out: rhSYK Activity”, the IC50 lay in the range of 100 to 1000 nM.
Still for that read-out and setting: for `Cc1cc(Nc2cc(C3CC3)ccn2)nc(-n2cnc([C@]3(O)CC[C@@H](OC(=O)c4ccccc4)CC3)c2)c1` [Example 50, cis-4-(1-{6-[(4-cyclopropylpyridin-2-yl)amino]-4-methylpyridin-2-yl}-1H-imidazol-4-yl)-4-hydroxycyclohexyl benzoate] the value was at most 100 nM; for `Cc1ccnc(Nc2cc(C)cc(-n3cnc([C@]4(O)CC[C@@H](OC(=O)c5ccccc5)CC4)c3)n2)c1` [Example 51, cis-4-hydroxy-4-(1-{4-methyl-6-[(4-methylpyridin-2-yl)amino]pyridin-2-yl}-1H-imidazol-4-yl)cyclohexyl benzoate], at most 100 nM.
On the same count and under the same terms, for `Cc1cc(Nc2cc(C(C)(C)C)ccn2)nc(-n2cnc([C@]3(O)CC[C@@H](OC(=O)c4ccccc4)CC3)c2)c1` [Example 52, cis-4-(1-{6-[(4-tert-butylpyridin-2-yl)amino]-4-methylpyridin-2-yl}-1H-imidazol-4-yl)-4-hydroxycyclohexyl benzoate] the value was at most 100 nM; for `Cc1cc(Nc2nccc(C(F)(F)F)n2)cc(-n2cnc(C3(O)CCC(=O)CC3)c2)c1` [Example 53, 4-hydroxy-4-[1-(3-methyl-5-{[4-(trifluoromethyl)pyrimidin-2-yl]amino}phenyl)-1H-imidazol-4-yl]cyclohexanone], at most 100 nM; for `Cc1cc(Nc2nccc(C(F)(F)F)n2)cc(-n2cnc([C@]3(O)CC[C@H](O)[C@@H](C)C3)c2)c1` [Example 54, (1S,3S,4S)-3-methyl-1-[1-(3-methyl-5-{[4-(trifluoromethyl)pyrimidin-2-yl]amino}phenyl)-1H-imidazol-4-yl]cyclohexane-1,4-diol], at most 100 nM.
Same read-out and setting: in the case of `Cc1cc(Nc2nccc(C(F)(F)F)n2)cc(-n2cnc([C@@]3(O)CC[C@H](O)[C@@H](C)C3)c2)c1` [Example 55, (1R,3S,4S)-3-methyl-1-[1-(3-methyl-5-{[4-(trifluoromethyl)pyrimidin-2-yl]amino}phenyl)-1H-imidazol-4-yl]cyclohexane-1,4-diol] it was at most 100 nM; in that of `Cc1cc(Nc2nccc(C(F)(F)F)n2)cc(-n2cnc([C@]3(O)CC[C@@H](O)[C@@H](C)C3)c2)c1` [Example 56, (1S,3S,4R)-3-methyl-1-[1-(3-methyl-5-{[4-(trifluoromethyl)pyrimidin-2-yl]amino}phenyl)-1H-imidazol-4-yl]cyclohexane-1,4-diol], at most 100 nM; in that of `Cc1cc(Nc2ncc(F)c(C)n2)cc(-n2cnc([C@]3(O)CC[C@@H](O)CC3)c2)c1` [Example 57, cis-1-(1-{3-[(5-fluoro-4-methylpyrimidin-2-yl)amino]-5-methylphenyl}-1H-imidazol-4-yl)cyclohexane-1,4-diol], at most 100 nM.
In the case of `Cc1cc(Nc2ncc(F)c(C)n2)cc(-n2cnc([C@]3(O)CC[C@@H](OC(=O)c4ccccc4)CC3)c2)c1` [Example 58, cis-4-(1-{3-[(5-fluoro-4-methylpyrimidin-2-yl)amino]-5-methylphenyl}-1H-imidazol-4-yl)-4-hydroxycyclohexyl benzoate], the IC50 (read-out: rhSYK Activity) fell in the range of 100 to 1000 nM.
For the molecule `Cc1cc(Nc2ncc(F)c(C3CC3)n2)cc(-n2cnc([C@]3(O)CC[C@@H](O)CC3)c2)c1` [Example 59, cis-1-(1-{3-[(4-cyclopropyl-5-fluoropyrimidin-2-yl)amino]-5-methylphenyl}-1H-imidazol-4-yl)cyclohexane-1,4-diol], the IC50 (read-out: rhSYK Activity) is at most 100 nM.
The same measure, in the same setting: for `Cc1cc(Nc2ncc(F)c(C3CC3)n2)cc(-n2cnc([C@]3(O)CC[C@@H](OC(=O)c4ccccc4)CC3)c2)c1` [Example 60, cis-4-(1-{3-[(4-cyclopropyl-5-fluoropyrimidin-2-yl)amino]-5-methylphenyl}-1H-imidazol-4-yl)-4-hydroxycyclohexyl benzoate] the value was 100 to 1000 nM; for `Cc1cc(Nc2cc(C(F)(F)F)ccn2)nc(-n2cnc([C@]3(O)CC[C@H](O)CC3)c2)c1` [Example 61, trans-1-[1-(4-methyl-6-{[4-(trifluoromethyl)pyridin-2-yl]amino}pyridin-2-yl)-1H-imidazol-4-yl]cyclohexane-1,4-diol], at most 100 nM.
Turning to `Cc1cc(Nc2cc(C(F)(F)F)ccn2)nc(-n2cnc([C@]3(O)CC[C@@H](O)CC3)c2)c1` [Example 62, cis-1-[1-(4-methyl-6-{[4-(trifluoromethyl)pyridin-2-yl]amino}pyridin-2-yl)-1H-imidazol-4-yl]cyclohexane-1,4-diol], the IC50 is at most 100 nM (read-out: rhSYK Activity) and 1.36 nM (read-out: rhSYK IC50).
In the case of `Cc1cc(Nc2cc(C(F)(F)F)ccn2)nc(-n2cnc([C@]3(O)CC[C@H](OC(=O)c4ccccc4)CC3)c2)c1` [Example 63, trans-4-hydroxy-4-[1-(4-methyl-6-{[4-(trifluoromethyl)pyridin-2-yl]amino}pyridin-2-yl)-1H-imidazol-4-yl]cyclohexyl benzoate], the IC50 (read-out: rhSYK Activity) was at most 100 nM.
As to `Cc1cc(Nc2cc(C(F)(F)F)ccn2)nc(-n2cnc([C@]3(O)CC[C@@H](OC(=O)c4ccccc4)CC3)c2)c1` [Example 64, cis-4-hydroxy-4-[1-(4-methyl-6-{[4-(trifluoromethyl)pyridin-2-yl]amino}pyridin-2-yl)-1H-imidazol-4-yl]cyclohexyl benzoate], the IC50 (read-out: rhSYK Activity) is at most 100 nM.
Same read-out and setting: in the case of `Cc1cc(Nc2nccc(C(F)(F)F)n2)cc(-n2cnc(C3(O)CCC(O)CC3)c2)c1` (stereo not drawn) [Example 65, trans-1-[1-(3-methyl-5-{[4-(trifluoromethyl)pyrimidin-2-yl]amino}phenyl)-1H-imidazol-4-yl]cyclohexane-1,4-diol] it was at most 100 nM; in that of `Cc1cc(Nc2nccc(C(F)(F)F)n2)cc(-n2cnc([C@]3(O)CC[C@H](OC(=O)c4ccccc4)CC3)c2)c1` [Example 66, trans-4-hydroxy-4-[1-(3-methyl-5-{[4-(trifluoromethyl)pyrimidin-2-yl]amino}phenyl)-1H-imidazol-4-yl]cyclohexyl benzoate], 100 to 1000 nM.
Turning to `Cc1cc(Nc2nccc(C(F)(F)F)n2)cc(-n2cc(C(=O)O)nc2C)c1` [Example 67, 2-Methyl-1-(3-methyl-5-{[4-(trifluoromethyl)pyrimidin-2-yl]amino}phenyl)-1H-imidazole-4-carboxylic acid], where the note is “read-out: rhSYK Activity”, the IC50 is at most 100 nM.
As for `Cc1cc(Nc2nccc(C(F)(F)F)n2)cc(-n2cc(C(C)(C)O)nc2C)c1` [Example 68, 2-[2-Methyl-1-(3-methyl-5-{[4-(trifluoromethyl)pyrimidin-2-yl]amino}phenyl)-1H-imidazol-4-yl]propan-2-ol], the IC50 (read-out: rhSYK Activity) was in the range of 100 to 1000 nM.
As to `COC(=O)c1cn(-c2cccc(Nc3cc(Cl)ccn3)n2)cn1` [Example 69, Methyl 1-{6-[(4-chloropyridin-2-yl)amino]pyridin-2-yl}-1H-imidazole-4-carboxylate], the IC50 (read-out: rhSYK Activity) fell in the range of 100 to 1000 nM.
